# Assay results published in US9399904B2, “Oil recovery system and method” (SHELL OIL COMPANY, priority 2013, dated 2016).
# Assay: Dynamic viscosity of crude/dimethyl sulfide blends, closed cup rheometer
# Format: physicochemical
# Experimental: The quality of dimethyl sulfide as an oil recovery agent based on the crude oil viscosity lowering properties of dimethyl sulfide was evaluated. Three crude oils having widely disparate viscosity characteristics—an African Waxy crude, a Middle Eastern asphaltic crude, and a Canadian asphaltic crude—were blended with dimethyl sulfide.
# A control sample of each crude was prepared containing no dimethyl sulfide, and samples of each crude were prepared and blended with dimethyl sulfide to prepare crude samples containing increasing concentrations of dimethyl sulfide. The samples were heated to 60° C. to dissolve any waxes therein and to permit weighing of a homogeneous liquid. The samples were weighed, allowed to cool overnight, then blended with a selected quantity of dimethyl sulfide. The samples of the crude/dimethyl sulfide blend were then heated to 60° C. and mixed to ensure homogeneous blending of the dimethyl sulfide in the samples. Absolute (dynamic) viscosity measurements of each of the samples were taken using a closed cup rheometer using a PZ39 rotor sensor assembly in the rheometer. Viscosity measurements of each of the samples of the West African waxy crude and the Middle Eastern asphaltic crude were taken at 20° C., 40° C., 60° C., 80° C., and then again at 20° C. after cooling from 80° C., where the second measurement at 20° C. is taken to measure the viscosity without the presence of waxes since wax formation occurs slowly enough to permit viscosity measurement at 20° C. without the presence of wax. Viscosity measurements of each of the samples of the Canadian asphaltic crude were taken at 5° C., 10° C., 20° C., 40° C., 60° C., 80° C., The measured viscosities for each of the crudes are shown in Tables 4, 5, and 6 below.
smiles,measurement,setting,value
"CSC [Dimethyl Sulfide, dimethyl sulfide]",Viscosity of West African Waxy Crude,"1.21 wt. % DMS, 20° C.",125.8 mPa s
same,Viscosity of West African Waxy Crude,"1.21 wt. % DMS, 20° C. after cooling from 80° C.",100.1 mPa s
same,Viscosity of West African Waxy Crude,"1.21 wt. % DMS, 40° C.",30.94 mPa s
same,Viscosity of West African Waxy Crude,"1.21 wt. % DMS, 60° C.",14.66 mPa s
same,Viscosity of West African Waxy Crude,"1.21 wt. % DMS, 80° C.",8.92 mPa s
same,Viscosity of Middle Eastern Asphaltic Crude,"1.3 wt. % DMS, 20° C.",1733.8 mPa s
same,Viscosity of Middle Eastern Asphaltic Crude,"1.3 wt. % DMS, 20° C. after cooling from 80° C.",1624.8 mPa s
same,Viscosity of Middle Eastern Asphaltic Crude,"1.3 wt. % DMS, 40° C.",334.5 mPa s
same,Viscosity of Middle Eastern Asphaltic Crude,"1.3 wt. % DMS, 60° C.",106.7 mPa s
same,Viscosity of Middle Eastern Asphaltic Crude,"1.3 wt. % DMS, 80° C.",44.6 mPa s
same,Viscosity of Topped Canadian Asphaltic Crude,"1.43 wt. % DMS, 20° C.",212525 mPa s
same,Viscosity of Topped Canadian Asphaltic Crude,"1.43 wt. % DMS, 40° C.",14721 mPa s
same,Viscosity of Topped Canadian Asphaltic Crude,"1.43 wt. % DMS, 60° C.",2209 mPa s
same,Viscosity of Topped Canadian Asphaltic Crude,"1.43 wt. % DMS, 80° C.",538 mPa s
same,Viscosity of Topped Canadian Asphaltic Crude,"2.07 wt. % DMS, 20° C.",134880 mPa s
same,Viscosity of Topped Canadian Asphaltic Crude,"2.07 wt. % DMS, 40° C.",10523 mPa s
same,Viscosity of Topped Canadian Asphaltic Crude,"2.07 wt. % DMS, 60° C.",1747 mPa s
same,Viscosity of Topped Canadian Asphaltic Crude,"2.07 wt. % DMS, 80° C.",427 mPa s
same,Viscosity of West African Waxy Crude,"2.48 wt. % DMS, 20° C.",122.3 mPa s
same,Viscosity of West African Waxy Crude,"2.48 wt. % DMS, 20° C. after cooling from 80° C.",89.23 mPa s
same,Viscosity of West African Waxy Crude,"2.48 wt. % DMS, 40° C.",30.53 mPa s
same,Viscosity of West African Waxy Crude,"2.48 wt. % DMS, 60° C.",13.66 mPa s
same,Viscosity of West African Waxy Crude,"2.48 wt. % DMS, 80° C.",8.44 mPa s
same,Viscosity of Middle Eastern Asphaltic Crude,"2.6 wt. % DMS, 20° C.",1026.6 mPa s
same,Viscosity of Middle Eastern Asphaltic Crude,"2.6 wt. % DMS, 20° C. after cooling from 80° C.",881.1 mPa s
same,Viscosity of Middle Eastern Asphaltic Crude,"2.6 wt. % DMS, 40° C.",219.9 mPa s
same,Viscosity of Middle Eastern Asphaltic Crude,"2.6 wt. % DMS, 60° C.",76.5 mPa s
same,Viscosity of Middle Eastern Asphaltic Crude,"2.6 wt. % DMS, 80° C.",34.3 mPa s
same,Viscosity of Topped Canadian Asphaltic Crude,"4.87 wt. % DMS, 20° C.",28720 mPa s
same,Viscosity of Topped Canadian Asphaltic Crude,"4.87 wt. % DMS, 40° C.",3235 mPa s
same,Viscosity of Topped Canadian Asphaltic Crude,"4.87 wt. % DMS, 60° C.",985 mPa s
same,Viscosity of Topped Canadian Asphaltic Crude,"4.87 wt. % DMS, 80° C.",328 mPa s
same,Viscosity of West African Waxy Crude,"5.03 wt. % DMS, 20° C.",78.37 mPa s
same,Viscosity of West African Waxy Crude,"5.03 wt. % DMS, 20° C. after cooling from 80° C.",55.21 mPa s
same,Viscosity of West African Waxy Crude,"5.03 wt. % DMS, 40° C.",20.24 mPa s
same,Viscosity of West African Waxy Crude,"5.03 wt. % DMS, 60° C.",10.45 mPa s
same,Viscosity of West African Waxy Crude,"5.03 wt. % DMS, 80° C.",6.55 mPa s
same,Viscosity of Middle Eastern Asphaltic Crude,"5.3 wt. % DMS, 20° C.",496.5 mPa s
same,Viscosity of Middle Eastern Asphaltic Crude,"5.3 wt. % DMS, 20° C. after cooling from 80° C.",503.5 mPa s
same,Viscosity of Middle Eastern Asphaltic Crude,"5.3 wt. % DMS, 40° C.",134.2 mPa s
same,Viscosity of Middle Eastern Asphaltic Crude,"5.3 wt. % DMS, 60° C.",52.2 mPa s
same,Viscosity of Middle Eastern Asphaltic Crude,"5.3 wt. % DMS, 80° C.",25.5 mPa s
same,Viscosity of Middle Eastern Asphaltic Crude,"7.6 wt. % DMS, 20° C.",288.0 mPa s
same,Viscosity of West African Waxy Crude,"7.60 wt. % DMS, 20° C.",60.92 mPa s
same,Viscosity of Middle Eastern Asphaltic Crude,"7.6 wt. % DMS, 20° C. after cooling from 80° C.",290.0 mPa s
same,Viscosity of West African Waxy Crude,"7.60 wt. % DMS, 20° C. after cooling from 80° C.",40.89 mPa s
same,Viscosity of Middle Eastern Asphaltic Crude,"7.6 wt. % DMS, 40° C.",89.4 mPa s
same,Viscosity of West African Waxy Crude,"7.60 wt. % DMS, 40° C.",17.08 mPa s
same,Viscosity of Middle Eastern Asphaltic Crude,"7.6 wt. % DMS, 60° C.",37.4 mPa s
same,Viscosity of West African Waxy Crude,"7.60 wt. % DMS, 60° C.",9.29 mPa s
same,Viscosity of Middle Eastern Asphaltic Crude,"7.6 wt. % DMS, 80° C.",19.3 mPa s
same,Viscosity of West African Waxy Crude,"7.60 wt. % DMS, 80° C.",6.09 mPa s
same,Viscosity of Topped Canadian Asphaltic Crude,"8.01 wt. % DMS, 20° C.",5799 mPa s
same,Viscosity of Topped Canadian Asphaltic Crude,"8.01 wt. % DMS, 40° C.",982 mPa s
same,Viscosity of Topped Canadian Asphaltic Crude,"8.01 wt. % DMS, 60° C.",275 mPa s
same,Viscosity of Topped Canadian Asphaltic Crude,"8.01 wt. % DMS, 80° C.",106 mPa s
